Reference: ChEMBL document CHEMBL1140529, “Androstene-3,5-dienes as ER-beta selective SERMs” (Bioorg Med Chem Lett, 2007)

What was measured:
Estrogen receptor beta [1] = target: T1, Estrogen receptor beta (Homo sapiens, UniProt Q92731)
Description: Binding affinity at human recombinant ERbeta

Estrogen receptor beta [2] = target: T1, Estrogen receptor beta; format: functional, cell-based, HEK293
Description: Agonist activity at ERbeta expressed in HEK293 cells by transactivation assay

Androgen receptor = target: T2, Androgen receptor (Homo sapiens, UniProt P10275)
T2 sequence (P10275 whole entry): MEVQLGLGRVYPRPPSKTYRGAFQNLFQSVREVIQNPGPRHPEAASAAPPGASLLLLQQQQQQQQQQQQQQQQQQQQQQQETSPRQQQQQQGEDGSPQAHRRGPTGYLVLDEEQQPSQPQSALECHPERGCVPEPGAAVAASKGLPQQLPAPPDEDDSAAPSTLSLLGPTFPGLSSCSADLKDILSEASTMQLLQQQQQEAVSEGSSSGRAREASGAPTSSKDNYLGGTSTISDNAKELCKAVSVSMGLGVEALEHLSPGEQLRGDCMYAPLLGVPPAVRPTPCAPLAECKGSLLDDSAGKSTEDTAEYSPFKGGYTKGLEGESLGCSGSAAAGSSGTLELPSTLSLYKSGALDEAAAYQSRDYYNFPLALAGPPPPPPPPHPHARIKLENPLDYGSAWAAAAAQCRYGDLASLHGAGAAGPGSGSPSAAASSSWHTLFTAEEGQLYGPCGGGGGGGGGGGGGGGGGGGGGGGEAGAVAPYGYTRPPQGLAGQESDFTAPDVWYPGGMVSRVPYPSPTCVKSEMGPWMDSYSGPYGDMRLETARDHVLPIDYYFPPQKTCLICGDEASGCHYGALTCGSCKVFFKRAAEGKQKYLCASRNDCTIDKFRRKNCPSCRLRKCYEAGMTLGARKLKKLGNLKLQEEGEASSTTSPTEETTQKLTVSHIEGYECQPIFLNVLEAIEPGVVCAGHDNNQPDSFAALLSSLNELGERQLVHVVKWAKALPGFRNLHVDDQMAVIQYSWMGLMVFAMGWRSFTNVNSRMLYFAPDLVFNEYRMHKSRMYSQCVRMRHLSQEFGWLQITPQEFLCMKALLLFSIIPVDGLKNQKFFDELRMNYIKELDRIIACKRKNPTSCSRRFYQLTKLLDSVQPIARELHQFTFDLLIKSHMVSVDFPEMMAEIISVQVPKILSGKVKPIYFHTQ

Estrogen receptor [3] = target: T3, Estrogen receptor (Homo sapiens, UniProt P03372)
T3 sequence (P03372 whole entry): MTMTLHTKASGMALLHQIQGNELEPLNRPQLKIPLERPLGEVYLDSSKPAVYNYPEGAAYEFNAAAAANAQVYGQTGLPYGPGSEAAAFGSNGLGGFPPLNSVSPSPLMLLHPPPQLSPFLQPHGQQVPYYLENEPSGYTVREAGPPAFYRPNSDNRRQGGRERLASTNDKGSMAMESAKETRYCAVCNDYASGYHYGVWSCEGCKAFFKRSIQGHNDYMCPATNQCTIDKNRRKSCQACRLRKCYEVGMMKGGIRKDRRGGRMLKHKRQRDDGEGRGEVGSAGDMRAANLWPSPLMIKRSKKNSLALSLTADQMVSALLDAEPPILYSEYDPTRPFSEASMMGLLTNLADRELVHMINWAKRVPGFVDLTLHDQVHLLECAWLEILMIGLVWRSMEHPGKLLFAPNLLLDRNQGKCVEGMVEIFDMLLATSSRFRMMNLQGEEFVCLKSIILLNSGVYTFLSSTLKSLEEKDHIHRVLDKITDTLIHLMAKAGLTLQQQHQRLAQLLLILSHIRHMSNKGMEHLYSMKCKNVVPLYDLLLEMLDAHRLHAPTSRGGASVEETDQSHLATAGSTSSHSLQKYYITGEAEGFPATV
Description: Binding affinity at human recombinant ERalpha

Estrogen receptor [4] = target: T3, Estrogen receptor; format: functional, cell-based, HEK293
Description: Agonist activity at ERalpha expressed in HEK293 cells by transactivation assay

T1 sequence (Q92731 whole entry): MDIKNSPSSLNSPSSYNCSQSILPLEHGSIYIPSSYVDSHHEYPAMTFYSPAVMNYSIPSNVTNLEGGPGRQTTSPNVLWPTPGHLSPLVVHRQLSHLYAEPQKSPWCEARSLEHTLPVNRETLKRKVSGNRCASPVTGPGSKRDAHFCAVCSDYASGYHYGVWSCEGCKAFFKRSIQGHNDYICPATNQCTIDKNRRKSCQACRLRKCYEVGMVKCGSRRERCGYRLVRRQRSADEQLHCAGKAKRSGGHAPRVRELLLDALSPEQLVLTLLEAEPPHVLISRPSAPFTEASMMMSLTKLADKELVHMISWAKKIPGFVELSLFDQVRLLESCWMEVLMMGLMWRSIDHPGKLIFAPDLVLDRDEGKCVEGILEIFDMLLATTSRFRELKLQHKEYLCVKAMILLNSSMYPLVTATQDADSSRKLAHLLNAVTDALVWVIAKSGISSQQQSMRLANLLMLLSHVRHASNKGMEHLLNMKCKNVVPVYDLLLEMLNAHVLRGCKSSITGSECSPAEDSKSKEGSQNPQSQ

| Compound | IC50 (Estrogen receptor beta [1]) | EC50 (Estrogen receptor beta [2]) | IC50 (Androgen receptor) | IC50 (Estrogen receptor [3]) | EC50 (Estrogen receptor [4]) |
| --- | --- | --- | --- | --- | --- |
| C=C1C=C2CC[C@H]3[C@@H]4CC[C@H](O)[C@@]4(C)CC[C@@H]3[C@@]2(C)CC1 | 0.034 µM | 0.21 µM | 0.04 µM |  |  |
| CC1=CC2=CC[C@H]3[C@@H]4CC[C@H](O)[C@@]4(C)CC[C@@H]3[C@@]2(C)CC1 | 0.0094 µM | 0.22 µM | 2.25 µM |  |  |
| C=C[C@]12CC[C@@](C)(O)CC1=CC[C@H]1[C@@H]3CC[C@H](O)[C@@]3(C)CC[C@@H]12 | 2.49 µM | > 1 µM | 2.61 µM | > 10 µM | > 1 µM |
| C=C[C@]12CC[C@H](O)CC1=CC[C@@H]1[C@@H]2CC[C@@]2(C)[C@H]1CC[C@]2(C)O |  | 0.19 µM |  | 1.05 µM | > 1 µM |
| C=C[C@]12CCC(=C)C=C1CC[C@H]1[C@@H]3CC[C@H](O)[C@@]3(C)CC[C@@H]12 | 0.12 µM | 0.23 µM | 0.33 µM | > 10 µM | 0.43 µM |
| C[C@]12CC[C@H]3[C@@H](CCC4=CC(=O)CC[C@@]43C)[C@@H]1CC[C@@H]2O [TESTOSTERONE] | > 10 µM |  |  |  |  |
| C#CC1(O)CC[C@H]2[C@@H]3CC=C4C=C(C)CC[C@]4(C=C)[C@H]3CC[C@@]21C (single isomer, unassigned) | 0.072 µM | 0.031 µM | 1.61 µM | 1.85 µM | 0.49 µM |
| C=C[C@]12CCC(CC)=CC1=CC[C@H]1[C@@H]3CC[C@H](O)[C@@]3(C)CC[C@@H]12 | 0.115 µM | 0.565 µM | 0.5 µM | 3.11 µM | > 1 µM |
| C=C[C@]12CCC(Cl)=CC1=CC[C@H]1[C@@H]3CC[C@H](O)[C@@]3(C)CC[C@@H]12 | 0.064 µM | 0.17 µM |  | 5.74 µM | 0.82 µM |
| C=C[C@]12CCC(C)=CC1=CC[C@@H]1[C@@H]2CC[C@@]2(C)[C@H]1CC[C@]2(C)O | 0.053 µM | 0.48 µM | 0.52 µM | 4.38 µM | > 1 µM |
| C=C[C@]12CC[C@](C)(O)CC1=CC[C@H]1[C@@H]3CC[C@H](O)[C@@]3(C)CC[C@@H]12 | 0.255 µM | 0.24 µM | 0.842 µM | 5.3 µM | > 1 µM |
| C#CC1(O)CC[C@H]2[C@@H]3CC=C4C[C@@H](O)CC[C@]4(C=C)[C@H]3CC[C@@]21C (single isomer, unassigned) |  |  |  | 0.15 µM | 0.13 µM |
| C=C[C@]12CCC(C)=CC1=CC[C@H]1[C@@H]3CC[C@H](O)[C@@]3(C)CC[C@@H]12 | 0.009 µM | 0.069 µM | 0.56 µM | 1.44 µM | > 1 µM |
| C=C[C@]12CCC(c3ccccc3)=CC1=CC[C@H]1[C@@H]3CC[C@H](O)[C@@]3(C)CC[C@@H]12 | 1.76 µM | > 1 µM | 3.16 µM | > 10 µM | > 1 µM |
